Experimental data published in US11530226B2, “Azepane inhibitors of menin-MLL interaction” (Janssen Pharmaceutica NV, priority 2016, dated 2022).
Like-named read-outs stand apart in the source and are kept apart here.

Legend:
[1] = biological target: T1, terbium chelate-labeled menin / FITC-MBM1 peptide (Menin/MLL) (Homo sapiens, UniProt O00255, T541A); assay: Menin/MLL homogenous time-resolved fluorescence (HTRF) assay; type: binding; conditions: read-out: (2) Menin HTRF assay (IC50 (nM))
T1 construct: Menin (a. a. l-610-6×his tag) was labeled with terbium cryptate as follows
T1 sequence (O00255 with tags, fused parts or gaps T541A): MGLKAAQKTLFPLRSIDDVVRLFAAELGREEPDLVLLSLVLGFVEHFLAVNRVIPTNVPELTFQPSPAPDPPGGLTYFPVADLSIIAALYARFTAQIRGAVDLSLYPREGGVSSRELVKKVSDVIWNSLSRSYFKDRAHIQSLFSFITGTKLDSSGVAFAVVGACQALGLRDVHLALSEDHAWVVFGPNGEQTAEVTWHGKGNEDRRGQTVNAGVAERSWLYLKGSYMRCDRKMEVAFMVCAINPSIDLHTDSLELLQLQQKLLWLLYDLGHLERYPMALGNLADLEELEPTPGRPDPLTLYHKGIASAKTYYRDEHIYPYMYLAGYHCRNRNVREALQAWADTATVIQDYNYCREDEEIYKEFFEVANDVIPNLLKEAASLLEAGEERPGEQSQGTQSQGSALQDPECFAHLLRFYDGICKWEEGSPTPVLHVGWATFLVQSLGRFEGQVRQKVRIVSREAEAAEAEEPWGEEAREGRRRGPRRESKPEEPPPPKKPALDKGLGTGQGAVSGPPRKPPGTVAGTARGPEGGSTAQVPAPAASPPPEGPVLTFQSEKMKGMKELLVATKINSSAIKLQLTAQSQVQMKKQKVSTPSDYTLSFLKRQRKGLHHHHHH
Method in brief: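 Terbium cryptate-labeled menin (aa 1-610, 6×His), 100 pM, preincubated 5 min with compound, then 75 nM FITC-MBM1 peptide added for 15 min at ambient temperature. Buffer: 40 mM Tris pH 7.5, 50 mM NaCl, 1 mM DTT, 0.05% Pluronic F-127, 0.5% DMSO. HTRF 520/490 ratio; 11-point threefold titration from 25 μM, IC50 from % inhibition curve.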

[2] = biological target: T2, menin / FITC-MBM1 peptide (Menin/MLL) (Homo sapiens, UniProt O00255); assay: Menin/MLL fluorescence polarization (FP) assay; type: binding; conditions: read-out: (1) Menin FP assay (IC50 (μM))
T2 sequence (O00255 1-610): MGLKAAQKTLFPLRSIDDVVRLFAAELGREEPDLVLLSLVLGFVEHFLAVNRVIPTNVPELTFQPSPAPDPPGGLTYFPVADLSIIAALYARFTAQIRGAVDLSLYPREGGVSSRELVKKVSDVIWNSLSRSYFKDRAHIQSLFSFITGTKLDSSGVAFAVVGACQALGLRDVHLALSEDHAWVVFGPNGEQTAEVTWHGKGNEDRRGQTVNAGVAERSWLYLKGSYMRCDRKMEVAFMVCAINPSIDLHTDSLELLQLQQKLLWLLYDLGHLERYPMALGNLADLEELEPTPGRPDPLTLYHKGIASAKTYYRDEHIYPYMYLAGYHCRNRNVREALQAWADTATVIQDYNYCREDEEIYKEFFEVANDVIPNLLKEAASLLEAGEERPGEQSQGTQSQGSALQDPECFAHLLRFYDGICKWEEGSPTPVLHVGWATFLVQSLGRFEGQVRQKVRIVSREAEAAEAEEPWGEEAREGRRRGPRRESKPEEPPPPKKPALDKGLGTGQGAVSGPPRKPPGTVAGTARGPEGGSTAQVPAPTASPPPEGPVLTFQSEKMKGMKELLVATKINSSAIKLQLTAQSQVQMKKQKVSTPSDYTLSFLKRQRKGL
Method: Pharmacological Part 1) Menin/MLL Fluorescence Polarization Assay
To a non-surface binding, black 384-well microtiter plate was added 50 nL 160× test compound in DMSO and 4 μL 2× menin in assay buffer (40 mM TrisHCl, pH 7.5, 50 mM NaCl, 1 mM DTT and 0.001% Tween 20). After incubation of test compound and menin for 10 min at ambient temperature, 4 μL 2×FITC-MBM1 peptide (FITC-β-alanine-SARWRPPARPGT-NH2) in assay buffer was added, the microtiter plate centrifuged at 1000 rpm for 1 min and the assay mixtures incubated for 15 min at ambient temperature. The relative amount of menin -FITC-MBM1 complex present in an assay mixture is determined by measuring the fluorescence polarization (FP) of the FITC label with a BMG Pherastar plate reader (ex. 485 nm/em. 520 nm) at ambient temperature. The final concentrations of reagents in the binding assay are 100 nM menin, 5 nM FITC-MBM1 peptide and 0.625%>DMSO in assay buffer. Dose-response titrations of test compounds are conducted using an 11 point, three-fold serial dilution scheme, starting at 31 μM.
Compound potencies were determined by first calculating % inhibition at each compound concentration according to equation 1: % inhibition=((HC−LC)−(FPcompound−LC))/(HC−LC))*100 (Eqn 1)
Where LC and HC are the FP values of the assay in the presence or absence of a saturating concentration of a compound that competes with FITC-MBM1 for binding to menin, and FP^compound is the measured FP value in the presence of the test compound. HC and LC FP values represent an average of at least 16 replicates per plate.
Where Bottom and Top are the lower and upper asymptotes of the dose-response curve, respectively, IC50 is the concentration of compound that yields 50% inhibition of signal and h is the Hill coefficient.

MV-4-1 1 cells (MLL-AF4) = assay: Proliferation assay (spheroid-like growth, 8 d, live-cell imaging), MV-4-11; type: cell-based, human; conditions: MV-4-11 cells, absolute IC50 from AUC of confluence, read-out: (3) Spheroid assay MV-4-11 (IC50 (μM))
Method: (§1) The anti-proliferative effect of menin/MLL protein/protein interaction inhibitor test compounds was assessed in human leukemia cell lines. The cell lines MV-4-1 1 and MOLM14 harbor MEL translocations and express the MEL fusion proteins MLL-AF4 and MLL-AF9, respectively, as well as the wildtype protein from the second allele. […] K562 was used as a control cell line containing two MLL wildtype alleles in order to exclude compounds that display general cytotoxic effects.
(§2) MV-4-1 1 and MOLM14 were cultured in RPMI-1640 (Sigma Aldrich) supplemented with 10% fetal bovine serum (HyClone), 2 mM L-glutamine (Sigma Aldrich) and 50 μg/ml gentamycin (Gibco). K562 were propagated in RPMI-1640 (Sigma Aldrich) supplemented with 20% fetal bovine serum (HyClone), 2 mM L-glutamine (Sigma Aldrich) and 50 μg/ml gentamycin (Gibco).
(§3) In order to assess the anti-proliferative effects, 1,500 MV-4-1 1, 300 MOLM14 or 750 K562 cells were seeded in 200 μl media per well in 96-well round bottom, ultra-low attachment plates (Costar, catalogue number 7007). Cell seeding numbers were chosen based on growth curves to ensure linear growth throughout the experiment. Test compounds were added at different concentrations and the DMSO content was normalized to 0.3%>. Cells were incubated for 8d at 37° C. and 5% C02. Spheroid like growth was monitored in real-time by live-cell imaging (IncuCyteZOOM, Essenbio, 4× objective) acquiring one image every four hours for 8d. Confluence (%) as a measure of spheroid size was determined using an integrated analysis tool.
(§4) In order to determine the cumulative effect of the test compounds over time, the area under the curve (AUC) in a plot of confluence against time was calculated. Confluence at the beginning of the experiment (t=0) was used as baseline for the AUC calculation.
(§5) Absolute IC50 values were calculated according to the following procedure: % Control=(AUC sample/AUC control)*100 AUC control=mean AUC of control values(cells without compound/DMSO as vehicle control)
(§6) A non-linear curve fit was applied using the least squares (ordinary) fit method to the plot of % control versus compound concentration. Based on this, the absolute IC50 value (half maximal inhibitory concentration of the test compound causing an anti-proliferative effect of 50% relative to the vehicle control) was calculated.

MOLM14 cells (MLL-AF9) = assay: Proliferation assay (spheroid-like growth, 8 d, live-cell imaging), MOLM14; type: cell-based, human; conditions: Homo sapiens, MOLM-14, 192 h, absolute IC50 from AUC of confluence, read-out: (3) Spheroid assay MOLM14 (IC50 (μM))
Method: as §1, §2, §3, §4, §5, §6

Compound	IC50 [1] [nM]	IC50 [2] [µM]	IC50 (MV-4-1 1 cells (MLL-AF4); Homo sapiens, MV4-11, 192 h) [µM]	IC50 (MOLM14 cells (MLL-AF9)) [µM]	IC50 (MV-4-1 1 cells (MLL-AF4)) [µM]	melting point [°C]
FC(F)CN[C@@H]1CCCN(c2ncnc3sc(CC(F)(F)F)cc23)CC1 [Compound 5]	9530	6.36				
FC(F)CN[C@@H]1CCCN(c2ncnc3sc(CC(F)(F)F)cc23)CC1 [Compound 5a]	8290	6.15				
O=C(NC1CCCN(c2ncnc3sc(CC(F)(F)F)cc23)CC1)C1CC2(CC2)CN1 (stereo not shown) [Compound 10B]	1320		5	14.2		
Cc1ccc(CNC2CCCN(c3ncnc4sc(CC(F)(F)F)cc34)CC2)cc1 (stereo not shown) [Compound 16]	21		0.8	4.9		
OCc1ccccc1CNC1CCCN(c2ncnc3sc(CC(F)(F)F)cc23)CC1 (stereo not shown) [Compound 21]	97		1	6.1		
COc1ccccc1CNC1CCCN(c2ncnc3sc(CC(F)(F)F)cc23)CC1 (stereo not shown) [Compound 22]	78		2.5	9.9		

Now from value to compound:

IC50 [1] [nM]	IC50 [2] [µM]	IC50 (MV-4-1 1 cells (MLL-AF4); Homo sapiens, MV4-11, 192 h) [µM]	IC50 (MOLM14 cells (MLL-AF9)) [µM]	IC50 (MV-4-1 1 cells (MLL-AF4)) [µM]	melting point [°C]	Compound
150		3.1	9.4			Cc1cccc(CNC2CCCN(c3ncnc4sc(CC(F)(F)F)cc34)CC2)c1 (stereo not shown) [Compound 23]
348				3.7	180	CC1CN(c2ncnc3sc(CC(F)(F)F)cc23)CCCC1NCc1ccccc1 (stereo not shown) [Compound 67B]
282		4.4	7.7			CC1CCN(c2ncnc3sc(CC(F)(F)F)cc23)CCC1NCc1ccccc1 (stereo not shown) [Compound 68C]
